Biological target: T1, CD73 (ecto-5′-nucleotidase) (Mus musculus, UniProt Q61503)
T1 sequence (Q61503 29-551): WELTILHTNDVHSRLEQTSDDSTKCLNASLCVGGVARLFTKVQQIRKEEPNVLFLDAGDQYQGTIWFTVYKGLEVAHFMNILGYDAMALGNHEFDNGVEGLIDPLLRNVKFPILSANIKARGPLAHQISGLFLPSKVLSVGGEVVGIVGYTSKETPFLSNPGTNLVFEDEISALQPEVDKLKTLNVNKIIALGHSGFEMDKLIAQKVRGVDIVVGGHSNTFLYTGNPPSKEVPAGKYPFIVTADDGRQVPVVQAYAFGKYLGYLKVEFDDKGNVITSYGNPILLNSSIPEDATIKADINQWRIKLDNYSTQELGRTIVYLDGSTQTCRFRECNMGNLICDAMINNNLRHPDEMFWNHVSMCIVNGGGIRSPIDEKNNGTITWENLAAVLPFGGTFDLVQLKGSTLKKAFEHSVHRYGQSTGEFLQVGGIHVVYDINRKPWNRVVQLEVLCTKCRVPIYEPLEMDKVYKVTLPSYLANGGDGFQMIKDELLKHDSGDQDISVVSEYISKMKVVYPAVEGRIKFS
Experiment: […]5-AMP hydrolysis in B16F10 tumor homogenate, LC/MS of […]5-adenosine
Type: biochemical

IC50: 0.704 nM
Structure (SMILES): C[C@H](Nc1cc(Cl)nc2c1cnn2[C@@H]1O[C@H](COP(=O)(O)CP(=O)(O)O)[C@@H](O)[C@H]1O)c1ccccc1F [AB680]

From paper PMC9381133 (Molecular Cancer Therapeutics, 2022)
